Results published in US20060223779A1, “Method of screening for inhibitors of human Fatty Acid-CoA Ligase 4” (priority 2000, published 2006).

Assays:
[1] = test system: FACL4/COX-2 double stable cells; experiment: Cell survival of FACL4/COX-2 double stable cells after TNFα or A23187; type: cell-based, human
Protocol: FIG. 5: Enzymatic “sinks” for free arachidonic acid protect against TNFα_ and calcium ionophore_mediated cell killing. (A) Determination of cell survival. The cells were induced (+Pon) or not (−Pon) for 24 hr, and TNFα (1 ng/ml) or the calcium ionophore A23187 (5 μM) was added, and the cells were incubated for another 72 hr. The surviving fraction was determined and is plotted relative to that of the same line without TNFα or A23187 treatment. Ctl denotes control cells harboring an empty vector, while FACL4/COX-2 denotes the double stable line. (B) Measurement of the free AA. The FACL4/COX-2 cells were prelabeled with [^3H] AA, induced, and stimulated with A23187 (5 μM), and [^3H] AA release was measured at the indicated time intervals. The values are from one experiment that is representative of four independent determinations.
Stable cell lines. The ecdysone inducible system (Invitrogen) was used to construct stable lines over-expressing human FACL4, COX-2, COX-2 mutant, and both FACL4 and COX-2. […] The cDNAs were cloned into pIND(SP1) (Neomycin^r). The cDNA constructs, or the empty vector pIND(SP1) were transfected into EcR293 cells, which were then selected in 400 μg/ml geneticin and 400 μg/ml zeocin. A number of single colonies were screened for over-expression of FACL4, COX-2 wild type, and COX-2 mutant by immunoblotting against anti-FACL4 (See Y. Cao et al., 467 FEBS Lett. 263-267 (2000)), and anti-COX-2 antibodies (a gift from Dr. Jacques Maclouf), and by measurement of the CoA ligase activity for FACL4 (See D. B. Wilson et al., 257 J. Biol. Chem. 3510-3515 (1992)), or the PGE2 secretion for COX-2 wild type (ELISA assay, Assay Design, Inc.). The double stable line was generated by stably transfecting the COX-2 stable cells with another pIND(SP1)-FACL4 cDNA construct, in which the FACL4 cDNA was cloned into a pIND(SP1) (hygromycin^r) vector. The cells were selected in 400 μg/ml geneticin, 400 μg/ml zeocin, and 50 μg/ml hygromycin B. The positive colonies were screened as described above.
(§1) Cell survival. Cell viability was determined with the crystal violet staining (See M. Hayakawa et al., 268 J. Biol. Chem. 11290-11295 (1993).

[2] = test system: COX-2 stable 293 cells; experiment: Apoptosis in stably transfected 293 cells with inducible COX-2 over-expression; type: cell-based, human; details: for effect on the prevention of apoptosis by COX-2: AA 300 μM, COX-2 over-expressing cells; for reduction of fatty acid-induced apoptosis by inducing COX-2 over-expression: COX-2 over-expression induced, n=3
Protocol: (A) Conditional expression level of FACL4 and COX-2 in stably transfected lines. Cells were treated with (+) or without (−) ponasterone (1 μg/ml) for 48 hr, and Western blotting was carried out with anti-FACL4 and anti-COX-2 antibodies, respectively. The loading was normalized with an anti-β actin antibody (ICN Biomedicals). […] The 293 cells stably transfected with an empty control vector (Ctl), FACL4 cDNA, COX-2 cDNA, and both FACL4 and COX-2 cDNAs were uninduced (−Pon) or induced for over-expression (+Pon) as in A. AA (300 μM) was added after 24 hr of induction and apoptosis was determined 44 hr later. […] The plot is a comparison of the relative apoptosis levels among the stable lines and is representative of three independent experiments. The values shown are the averages of triplicate determinations. […] Cells were uninduced (−Pon) or induced for over-expression as above. […] COX inhibitors were administered 6 hr later as indicated. AA (300 μM) was then added after 2 hr and apoptosis was determined 44 hr later. The plot is prepared as in B, and is a representative result from three independent experiments, in which triplicates were performed. Wt=wild-type, Mut=mutant, Met=50 μM 6-methoxy-2-naphthyl acetic acid, Indo=10 μM indomethacin. […] The COX-2, FACL4/COX-2 stable and control cells carrying an empty vector were induced for 48 hr, washed and incubated with 20 μM AA at 37° C. for 30 min. The amount of PGE2 synthesized was determined by ELISA. […] (E) The levels of free AA in the stable lines. The [^3H]
(§2) Cell Death Detection ELISA. Cells were plated on 96 well-plates at 1×10^4 cells per well. AA was applied and apoptotic death was determined after 44 hr with the Cell Death Detection ELISA (Boehringer Mannheim).
Stable cell lines. The ecdysone inducible system (Invitrogen) was used to construct stable lines over-expressing human FACL4, COX-2, COX-2 mutant, and both FACL4 and COX-2. […] The cDNAs were cloned into pIND(SP1) (Neomycin^r). The cDNA constructs, or the empty vector pIND(SP1) were transfected into EcR293 cells, which were then selected in 400 μg/ml geneticin and 400 μg/ml zeocin. […] The double stable line was generated by stably transfecting the COX-2 stable cells with another pIND(SP1)-FACL4 cDNA construct, in which the FACL4 cDNA was cloned into a pIND(SP1) (hygromycin^r) vector. The cells were selected in 400 μg/ml geneticin, 400 μg/ml zeocin, and 50 μg/ml hygromycin B. The positive colonies were screened as described above.

[3] = test system: 293 cells; experiment: Cell survival (crystal violet staining) in 293 cells; type: cell-based, human; details: not shown
Protocol: (§3) FIG. 3: Arachidonic acid induces apoptosis via activation of caspase 3. (A) Determination of cell survival. AA was added to 293 cells at the indicated concentrations and the surviving fraction of cells was determined after 44 hr. The values shown are relative to the viability of cells that were not exposed to AA. (B) Increased apoptosis in cells exposed to AA. Cells were treated with AA (300 μM) or palmitic acid (300 μM) under the same conditions as in A, and then apoptosis was detected with an ELISA. The mean values from triplicate determinations are shown. […] The 293 cells were treated with AA (300 μM; +AA) or vehicle alone (−AA) for 44 hr. The nuclei were stained with DAPI, and DNA strand breaks in individual cells were detected with a fluorescent TUNEL assay. The upper panels are the same field of cells (−AA) photographed under UV (left panels) and FITC filters (right panels). The lower panels illustrate apoptotic cells (+AA). The magnification is 80×. (D) Immunostaining with an anti-active caspase 3 antibody. Upper panels, control cells (−AA); lower panels, cells exposed to 300 μM AA. Left panels, DAPI staining; right panels, immunostaining with an antibody selective for active caspase 3. The magnification is 100×. […] The 293 cells were preincubated with caspase inhibitors (including DMQD, a caspase 3 inhibitor, and YVAD, a caspase 1 and 4 inhibitor (Peptide Institute)) for 1 hr at the indicated concentrations, AA (300 μM) was added, and apoptosis was determined 44 hr later. The values represent the means from triplicate determinations.
as §1

[4] = test system: 293 cells; experiment: Apoptosis by Cell Death Detection ELISA in 293 cells; type: cell-based, human; details: for effect of antioxidant pretreatment on AA-induced apoptosis: antioxidant 1 hr, then AA 200 μM
Protocol: as §3, §2

[5] = test system: colon and prostate cancer cells; details: by down-regulating Bcl-2; literature reports; cited from earlier work
[6] = test system: HT 29 cells; experiment: Apoptosis by Cell Death ELISA in HT 29 cells; type: cell-based
Protocol: HT 29 Cells were plated in 96 wells. Triacsin C and AA were added (in A), or triacsin C with either indomethacin (Indo) or sulindac (Sul) (in B) were added at the indicated concentrations. Indomethacin and sulindac are both cyclooxygenase (COX) inhibitors. Apoptosis was determined by Cell Death ELISA 44 hr later (A), and 72 hr later (B), respectively. […] The values shown are the means of triplicate determinations.
as §2

## COc1ccc2cc(CC(=O)O)ccc2c1 [6-methoxy-2-naphthylacetic acid]
[1]; double stable cells, not shown
  effect on the improvement in cell survival in the double stable cells: partially abolished the improvement in cell survival
[2]; 50 μM
  effect on the prevention of apoptosis by COX-2: abolished the prevention of apoptosis by COX-2

## CCCCC[C@H](O)/C=C/C=C\C/C=C\C/C=C\CCCC(=O)O [15-HETE]
[3]; 293 cells
  effect on cell survival: did not affect cell survival

## CC/C=C\C/C=C\C/C=C\C/C=C\C/C=C\C/C=C\CCC(=O)O [DHA, docosahexaenoic acid]
[2]; 100 μM
  fold-increase in apoptosis after fatty acid treatment: 15.1 fold
[2]
  reduction of fatty acid-induced apoptosis by inducing COX-2 over-expression: 18.5%

## CC/C=C\C/C=C\C/C=C\C/C=C\C/C=C\CCCC(=O)O [EPA, eicosapentaenoic acid]
[2]; 200 μM
  fold-increase in apoptosis after fatty acid treatment: 9.1 fold
[2]
  reduction of fatty acid-induced apoptosis by inducing COX-2 over-expression: 34.0%

## CC(Cc1ccc(O)c(O)c1)C(C)Cc1ccc(O)c(O)c1 (stereo not shown) [NDGA]
[4]; 293 cells
  induction of apoptosis: induced apoptosis

## CS(=O)(=O)Nc1ccc([N+](=O)[O-])cc1OC1CCCCC1 [NS398]
[5]
  reported effect on apoptosis: enhance the induction of apoptosis

## CCCCC[C@H](O)/C=C/[C@H]1[C@H](O)CC(=O)[C@@H]1C/C=C\CCCC(=O)O [PGE2]
[3]; 50 μM added directly
  cell viability in the presence of exogenous AA: did not improve cell viability

## CCCCC[C@H](O)/C=C/[C@H]1C(=O)C=C[C@@H]1C/C=C\CCCC(=O)O [PGJ2]
[3]; 5 μM added directly
  cell viability in the presence of exogenous AA: did not improve cell viability

## CS(=O)(=O)c1ccc(-n2nc(C(F)(F)F)cc2-c2ccc(F)cc2)cc1 [SC-58125]
[5]
  reported effect on apoptosis: enhance the induction of apoptosis

## O=C1O[C@H]([C@@H](O)CO)C(O)=C1O [ascorbic acid]
[4]; 293 cells, 44 hr
  effect of antioxidant pretreatment on AA-induced apoptosis: apoptosis decreased significantly

## COc1ccc2c(c1)c(CC(=O)O)c(C)n2C(=O)c1ccc(Cl)cc1 [indomethacin]
[2]; 10 μM
  effect on the prevention of apoptosis by COX-2: did not alter the apoptosis response

## CCCCCCCC/C=C\CCCCCCCC(=O)O [oleic acid]
[4]
  induction of apoptosis by other fatty acids compared with AA: did not cause the same response

## CCCCCCCCCCCCCCCC(=O)O [palmitic acid]
[2]; 200 μM
  fold-increase in apoptosis after fatty acid treatment: 4.2 fold
[2]
  reduction of fatty acid-induced apoptosis by inducing COX-2 over-expression: 8.1%
[4]
  induction of apoptosis by other fatty acids compared with AA: did not cause the same response
[4]; 293 cells, 300 μM, 44 hr
  apoptosis (mono- and oligo-nucleosomes) over the control: no increase

## CCC/C=C/C/C=C/C=C/C=N/NN=O [triacsin C]
[6]; 2 μM
  cell death with triacsin C alone: did not cause cell death
[6]; 10 μM
  increase in apoptosis compared to control cells: 9 fold
[6]; Cell Death ELISA
  induction of apoptosis: induced apoptosis in a concentration-dependent manner
[6]; plus sulindac, 72 hr
  increase of the apoptosis-inducing effect of triacsin C in the presence of sulindac: 4-8 fold
[6]; triacsin C 2 μM plus indomethacin, 72 hr
  apoptosis with triacsin C when indomethacin was added: induced apoptosis
[6]; triacsin C plus AA, 44 hr
  sensitization to AA-induced apoptosis: sensitized cells to AA-induced apoptosis

## Cc1c(C)c2c(c(C)c1O)CCC(C)(C(=O)O)O2 (stereo not shown) [trolox]
[4]; 293 cells, 44 hr
  effect of antioxidant pretreatment on AA-induced apoptosis: apoptosis decreased significantly

## TNFα
[1]; FACL4/COX-2 double stable cells induced with ponasterone, TNFα 1 ng/ml or A23187 5 μM, 72 hr, n=3
  surviving fraction, induced cells: 70.5%
[1]; FACL4/COX-2 double stable cells without induction, TNFα 1 ng/ml or A23187 5 μM, 72 hr, n=3
  surviving fraction, uninduced cells: 43.5%

## apo-transferrin: a membrane-impermeable antioxidant
[4]; 293 cells, 44 hr
  effect of antioxidant pretreatment on AA-induced apoptosis: did not alter AA-induced apoptosis

## tocopherol
[4]; 293 cells, 44 hr
  effect of antioxidant pretreatment on AA-induced apoptosis: apoptosis decreased significantly

## z-YVAD-fmk
[4]; 293 cells preincubated 1 hr with inhibitor, AA 300 μM, 44 hr
  blocking of AA-induced apoptosis by caspase inhibitor: not
